Results as given in patent US20260207717A1, “METHODS FOR TREATING INFANTILE-ONSET POMPE DISEASE IN PEDIATRIC PATIENTS” (Amicus Therapeutics, Inc., priority 2022, published 2026).
“Also recorded” adds a separate entry of the source. Marks after values point to notes of the source that are not given here.

Columns and labels:
[1] = tested on: single fibers isolated from the white gastrocnemius of Gaa KO mice; experiment: Single fiber analysis (LAMP1/LC3 co-immunofluorescence); type: in vivo
Excerpt: FIG. 17 depicts co-immunofluorescent staining of LAMP1 (green) (see for example, “B”) and LC3 (red) (see, for example, “A”) in single fibers isolated from the white gastrocnemius of Gaa KO mice treated with a vehicle, alglucosidase alfa, or ATB200. “C” depicts clearance of autophagic debris and absence of enlarged lysosome. A minimum of 30 fibers were examined from each animal.
As a result, a significant portion of muscle fibers analyzed (36-60%) from ATB200-treated mice appeared normal or near-normal.

[2] = tested on: normal and Pompe fibroblast cell lines; experiment: Cellular uptake of rhGAA (internalized GAA by 4MU-α-Glucoside hydrolysis); type: cell-based
Method: The relative cellular uptake of ATB200 and LUMIZYME® rhGAA were compared using normal and Pompe fibroblast cell lines. Comparisons involved 5-100 nM of ATB200 according to the disclosure with 10-500 nM conventional rhGAA product LUMIZYME®. After 16-hr incubation, external rhGAA was inactivated with TRIS base and cells were washed 3-times with PBS prior to harvest. Internalized GAA measured by 4MU-α-Glucoside hydrolysis and was graphed relative to total cellular protein and the results appear in FIGS. 11A-11C.
ATB200 was also shown to be efficiently internalized into cells. […] ATB200 saturates cellular receptors at about 20 nM, while about 250 nM of LUMIZYME® is needed to saturate cellular receptors.

[3] = target: CIMPR (Homo sapiens, UniProt P11717); experiment: CIMPR plate binding assay
Method: In addition to having a greater percentage of rhGAA that can bind to the CIMPR, it is important to understand the quality of that interaction. LUMIZYME® and ATB200 receptor binding was determined using a CIMPR plate binding assay. Briefly, CIMPR-coated plates were used to capture GAA. Varying concentrations of rhGAA were applied to the immobilized receptor and unbound rhGAA was washed off. The amount of remaining rhGAA was determined by GAA activity. […] For LUMIZYME®, there is on average only 10% of molecules having a bis-phosphorylated N-glycan. In contrast, on average every rhGAA molecule in ATB200 has at least one bis-phosphorylated N-glycan.
N-glycan analysis via MALDI-TOF mass spectrometry confirmed that on average each ATB200 molecule contains at least one natural bis-M6P N-glycan structure.

[4] = Juvenile toxicology; type: in vivo
Method: (§1) The cipaglucosidase alfa dose of 30 mg/kg being evaluated in this protocol was determined from population PK modeling and simulation analyses that included pooled data from 96 adults and 11 pediatric subjects dosed at 20, 25, and 30 mg/kg, including 3 pediatric IOPD patients from the Expanded Access Program (EAP) (ages 1 to 3 years) at the 30 mg/kg dose level. The 30 mg/kg dose level in combination with additional effect from miglustat provided exposures that are well within the safety margin and multiples of exposure established by the juvenile toxicology no-observed-adverse effect-level (NOAEL) of 150 mg/kg.

[5] = tested on: pediatric IOPD patients; experiment: Tolerability and accumulation in 3 pediatric IOPD patients of the EAP; type: in vivo, human; conditions: 30 mg/kg cipaglucosidase alfa in combination with miglustat, 3 pediatric IOPD patients in the EAP
Method: as §1
This frequency of dosing is based on the systemic clearance of the cipaglucosidase alfa and miglustat, and the acuity/severity of disease in IOPD, as well as observations in 3 IOPD patients enrolled in the EAP (ERT-experienced patients in clinical decline).
A weekly frequency of 30 mg/kg cipaglucosidase alfa and miglustat administration will be evaluated in this study. A weekly 30 mg/kg cipaglucosidase alfa and miglustat dose has been administered in pediatric subjects with IOPD from the EAP. […] The rationale for weekly dosing in both cohorts is based on evidence supporting improved survival for IOPD patients receiving weekly dosing of standard of care ERT compared to every other week dosing (Ditters, Huidekper et al, 2021). […]

Sequence of CIMPR (P11717 41-2491, species assumed): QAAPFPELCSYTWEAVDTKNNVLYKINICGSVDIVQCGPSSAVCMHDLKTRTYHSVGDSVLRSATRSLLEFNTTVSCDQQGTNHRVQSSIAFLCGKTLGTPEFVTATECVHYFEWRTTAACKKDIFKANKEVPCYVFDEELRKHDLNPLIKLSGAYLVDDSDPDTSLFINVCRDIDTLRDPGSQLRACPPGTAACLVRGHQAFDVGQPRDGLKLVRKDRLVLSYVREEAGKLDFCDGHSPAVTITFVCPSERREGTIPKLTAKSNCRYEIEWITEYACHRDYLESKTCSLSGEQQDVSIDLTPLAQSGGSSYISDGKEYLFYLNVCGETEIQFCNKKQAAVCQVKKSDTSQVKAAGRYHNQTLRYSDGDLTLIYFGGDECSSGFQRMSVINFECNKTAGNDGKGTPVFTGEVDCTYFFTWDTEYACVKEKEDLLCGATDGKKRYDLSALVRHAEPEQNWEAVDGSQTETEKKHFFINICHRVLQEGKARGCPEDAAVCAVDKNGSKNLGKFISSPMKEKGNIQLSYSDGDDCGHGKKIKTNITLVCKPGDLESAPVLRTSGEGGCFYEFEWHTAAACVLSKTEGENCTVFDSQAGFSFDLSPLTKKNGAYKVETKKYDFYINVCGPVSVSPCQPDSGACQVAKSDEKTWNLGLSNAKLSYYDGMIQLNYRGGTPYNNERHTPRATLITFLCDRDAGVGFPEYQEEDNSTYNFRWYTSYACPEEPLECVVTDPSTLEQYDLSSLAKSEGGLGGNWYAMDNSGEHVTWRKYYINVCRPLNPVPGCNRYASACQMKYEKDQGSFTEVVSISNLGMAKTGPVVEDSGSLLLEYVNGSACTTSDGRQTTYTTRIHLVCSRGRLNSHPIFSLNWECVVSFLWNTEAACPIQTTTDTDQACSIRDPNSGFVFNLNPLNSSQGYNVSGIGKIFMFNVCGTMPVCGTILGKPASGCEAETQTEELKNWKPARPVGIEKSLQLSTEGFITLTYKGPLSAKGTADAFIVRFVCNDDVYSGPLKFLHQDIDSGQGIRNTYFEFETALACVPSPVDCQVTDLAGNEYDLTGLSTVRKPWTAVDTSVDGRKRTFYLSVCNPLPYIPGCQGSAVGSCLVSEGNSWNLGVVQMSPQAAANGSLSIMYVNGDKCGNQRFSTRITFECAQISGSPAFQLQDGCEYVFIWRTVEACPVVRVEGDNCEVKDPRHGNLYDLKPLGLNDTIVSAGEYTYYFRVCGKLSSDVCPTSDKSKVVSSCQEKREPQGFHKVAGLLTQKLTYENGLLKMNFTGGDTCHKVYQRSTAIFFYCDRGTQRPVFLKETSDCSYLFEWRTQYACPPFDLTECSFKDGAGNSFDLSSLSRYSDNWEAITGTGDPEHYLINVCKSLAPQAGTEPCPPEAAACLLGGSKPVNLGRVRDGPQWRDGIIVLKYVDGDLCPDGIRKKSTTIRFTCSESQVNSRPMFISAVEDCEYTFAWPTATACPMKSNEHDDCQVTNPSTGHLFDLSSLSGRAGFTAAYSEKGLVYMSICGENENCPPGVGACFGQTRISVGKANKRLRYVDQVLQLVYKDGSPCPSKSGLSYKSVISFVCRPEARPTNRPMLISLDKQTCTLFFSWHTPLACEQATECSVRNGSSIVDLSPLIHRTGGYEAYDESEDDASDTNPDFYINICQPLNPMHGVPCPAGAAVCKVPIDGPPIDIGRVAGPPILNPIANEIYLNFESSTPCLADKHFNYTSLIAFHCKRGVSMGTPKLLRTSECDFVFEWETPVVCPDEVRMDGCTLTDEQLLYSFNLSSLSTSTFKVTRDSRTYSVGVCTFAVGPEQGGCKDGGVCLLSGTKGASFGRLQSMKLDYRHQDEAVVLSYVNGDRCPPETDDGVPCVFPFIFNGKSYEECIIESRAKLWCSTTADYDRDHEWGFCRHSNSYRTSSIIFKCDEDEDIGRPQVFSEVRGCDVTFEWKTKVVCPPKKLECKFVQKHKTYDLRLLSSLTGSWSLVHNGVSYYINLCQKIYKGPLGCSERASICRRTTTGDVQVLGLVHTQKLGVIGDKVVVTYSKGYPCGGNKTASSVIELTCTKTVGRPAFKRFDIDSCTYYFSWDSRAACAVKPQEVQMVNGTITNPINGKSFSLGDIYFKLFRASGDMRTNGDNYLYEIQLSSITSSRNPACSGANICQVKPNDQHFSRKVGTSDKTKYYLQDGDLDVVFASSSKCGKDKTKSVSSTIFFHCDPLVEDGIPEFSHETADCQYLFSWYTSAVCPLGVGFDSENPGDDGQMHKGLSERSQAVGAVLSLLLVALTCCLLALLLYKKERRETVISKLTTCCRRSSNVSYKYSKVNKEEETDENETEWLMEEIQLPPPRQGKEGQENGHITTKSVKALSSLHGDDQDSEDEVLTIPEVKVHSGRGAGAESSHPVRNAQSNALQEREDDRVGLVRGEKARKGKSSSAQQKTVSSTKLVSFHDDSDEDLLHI

For “ATB200: recombinant human acid α-glucosidase with a high content of N-glycans bearing mono-M6P and bis-M6P, produced from a GA-ATB200 cell line”, the “Fibers with Autophagy Buildup” value [1] was 40-64%*, the “Fibers with Normal or Near-normal Appearance” value [1] was 36-60% and the “Lysosome Enlargement” value [1] was “dramatically decreased lysosome size; also recorded: Dramatic size”. The “concentration that saturates cellular receptors” value ([2]; 16-hr incubation) was “about 20 nM”, the “internalization into normal and Pompe fibroblast cells” value ([2]; compared with LUMIZYME) was “internalized to a greater degree” and the “uptake efficiency constant (Kuptake)” value ([2]; extrapolated, FIG. 11C) was 2-3 nm. For the same substance, the Kd ([3]; M6P receptor plate binding assays) was 2 to 4 nM, the “binding to CIMPR” value ([3]; compared with LUMIZYME (FIG. 10A)) was “significantly better” and the “no-observed-adverse effect-level (NOAEL)” value [4] was 150 mg/kg. For the same substance, the tolerability [5] was “generally well-tolerated”.
